Reference: BindingDB's records for doi:10.1016/j.bmcl.2005.10.013 (Universidad De Santiago De Compostela, 2005)

Assays:
[1] = Inhibition of thrombin-induced platelet aggregation in human
[2] = Noradrenaline induced vasorelaxant activity in intact rat aortic rings

| Structure (SMILES) | IC50 [1] [µM] | IC50 [2] [µM] |
| --- | --- | --- |
| COc1cc(OC)cc(-c2cc3cc(OC)cc(OC)c3oc2=O)c1 [6,8-dimethoxy-3-(3',5'-dimethoxyphenyl)coumarin] | > 100 | > 100 |
| COc1cc(OC)cc(-c2cc3cc(OC)ccc3oc2=O)c1 [6-methoxy-3-(3',5'-dimethoxyphenyl)coumarin] | > 25 | 42.6 |
| COc1cc(OC)cc(-c2cc3ccc(O)cc3oc2=O)c1 [3-(3,5-dimethoxyphenyl)-7-hydroxy-2H-chromen-2-one] | 105 | 39.8 |
| Oc1ccc(/C=C/c2cc(O)cc(O)c2)cc1 [5-[(E)-2-(4-hydroxyphenyl)ethenyl]benzene-1,3-diol] | – | 19.9 |
| O=c1oc2cc(O)ccc2cc1-c1cc(O)cc(O)c1 [7-hydroxy-3-(3',5'-dihydroxyphenyl)coumarin] | 62.3 | 38.9 |
| O=c1oc2c(O)cc(O)cc2cc1-c1cc(O)cc(O)c1 [6,8-dihydroxy-3-(3',5'-dihydroxyphenyl)coumarin] | 285 | 95.5 |
| O=c1oc2ccc(O)cc2cc1-c1cc(O)cc(O)c1 [6-hydroxy-3-(3',5'-dihydroxyphenyl)coumarin] | 30.1 | 10.6 |
| COc1cc(OC)cc(-c2cc3ccc(OC)cc3oc2=O)c1 [7-methoxy-3-(3',5'-dimethoxyphenyl)coumarin] | > 100 | 52.5 |
